Test results from US20180044734A1, “COMPOSITION FOR DIAGNOSING SKIN DAMAGE CAUSED BY FINE DUST, AND COMPOSITION COMPRISING GALANGIN AS ACTIVE INGREDIENT” (AMOREPACIFIC CORPORATION, priority 2015, published 2018).

Assays:
filaggrin protein = assay: Filaggrin protein expression by blotting with filaggrin antibody; format: cell-based, human; settings: galangin 0, 0.5, 1, 2 μM, 24 hours; normalized to β-actin
Procedure: The normal human keratinocytes cultured in Example 2 were treated with galangin at different concentrations (0 μM, 0.5 μM, 1 μM and 2 μM). 24 hours later, the culture medium was removed and the cells were washed with 2 mL of phosphate-buffered saline (PBS). After adding cell lysis buffer and vortexing, proteins were quantified from the obtained supernatant. The proteins obtained from the epidermis of normal skin and dry skin were loaded on SDS gel and then blotted using the filaggrin antibody (Covance, France). The quantification result was normalized to that of β-actin (Sigma, USA).

[1] = test system: microdust-treated normal human keratinocytes; assay: Real-time RT-PCR of microdust-responsive genes in microdust-treated keratinocytes treated with galangin; format: cell-based; settings: microdust 2.5 μm 12.5 μg in 1 mL, galangin 0.25-2 μM, 24 hours
Procedure: The normal human keratinocytes cultured in Example 2 were treated 12.5 μg of the microdust with a particle diameter of 2.5 μm extracted in Example 1 in 1 mL of a cell culture medium and relative mRNA expression level was measured using the primers described in Tables 5 and 6 (TaqMan® primers, Applied Biosystems).
The microdust-treated normal human keratinocytes or the normal human keratinocytes cultured in Example 2 but not treated with microdust were treated with galangin at different concentrations (0.25 μM, 0.5 μM, 1 μM and 2 μM). 24 hours later, the culture medium was removed and the cells were washed with 2 mL of phosphate-buffered saline (PBS). Then, RNA was isolated from the cells using TRIzol reagent (Invitrogen, Carlsbad, Calif., USA). For S100A8, S100A9, CYP1A1, CYP1B1, PI3, IL36G, IL1B, CCL27, IL8, NOX6, XDH, CXCL14, H19, CASP14 and CASP8, expression level was measured after treating with 0.25 μM galangin. The galangin was purchased commercially from Nanjing Chemlin Chemical (CAS No. 548-83-4). The isolated RNA was purified once again with Qiagen RNA kit Qiagen, Valencia, Calif.) and the quality of RNA was determined using Agilent 2100 BioAnalyzer (Agilent Technologies, Santa Clara, Calif., USA). cDNA synthesized from the RNA using SuperScript reverse transcriptase (RT) kit (Invitrogen, Carlsbad, Calif.) was quantitatively analyzed by real time-reverse transcription polymerase chain reaction (Q-RT-PCR) using the primers described in Tables 5 and 6. The change in gene expression pattern was evaluated in real time using TaqMan gene expression assay kit (Applied Biosystems, Foster City, Calif.). The Q-RT-PCR and real-time PCR were conducted in accordance with the standard protocols of Life Technologies, specifically, 95° C. for 20 seconds followed by 40 cycles of 95° C. for 3 seconds and 60° C. for 30 seconds.

[2] = test system: filaggrin, keratin 10, keratin 1, keratin 13 and keratin 15 mRNA in normal human keratinocytes; assay: Real-time PCR of gene expression in normal keratinocytes upon treatment with galangin; format: cell-based; settings: cells not treated with microdust; galangin 0, 0.5, 1, 2 μM, 24 hours
Procedure: After treating the normal human keratinocytes cultured in Example 2 with galangin at different concentrations (0 μM, 0.5 μM, 1 μM and 2 μM), the relative mRNA expression level of filaggrin, keratin 10, keratin 1, keratin 13 and keratin 15 was measured.
24 hours after the treatment with galangin, the culture medium was removed and the cells were washed with 2 mL of phosphate-buffered saline (PBS). Then, RNA was isolated from the cells using TRIzol reagent (Invitrogen, Carlsbad, Calif., USA).
Subsequently, the change in gene expression was evaluated by real-time PCR in the same manner as in Example 5. For filaggrin, TaqMan® Hs00856927_g1 was used as the primer.

[3] = test system: normal human keratinocytes; assay: Differentiation of keratinocytes under optical microscope; format: cell-based; settings: cells not treated with microdust; galangin 0, 1, 2 μM, 24 hours
Procedure: The normal human keratinocytes cultured in Example 2 were treated with galangin at different concentrations (0 μM, 1 μM and 2 μM). 24 hours later, the culture medium was removed and the degree of differentiation of the keratinocytes was observed under an optical microscope (Olympus IX71, x40 and x200).

SMILES: O=c1c(O)c(-c2ccccc2)oc2cc(O)cc(O)c12 [galangin]
- expression of filaggrin protein (filaggrin protein): increased with increasing galangin concentration
- expression of genes whose expression is increased in skin cells stimulated by microdust ([1]; FIGS. 2a-2k): decreased expression
- expression of genes increased or decreased in skin cells stimulated by microdust ([1]; FIGS. 2 and 3): returned to the normal level
- expression of genes whose expression is decreased in skin cells stimulated by microdust ([1]; FIGS. 3a-3k): increased expression
- relative mRNA expression level of filaggrin [2]: increased expression with increasing galangin concentration
- relative mRNA expression level of keratin 1 [2]: increased expression with increasing galangin concentration
- relative mRNA expression level of keratin 10 [2]: increased expression with increasing galangin concentration
- relative mRNA expression level of keratin 13 [2]: increased expression with increasing galangin concentration
- relative mRNA expression level of keratin 15 [2]: increased expression with increasing galangin concentration
- degree of differentiation of the keratinocytes [3]: active differentiation with increasing galangin concentration
